How the values were obtained:
[1] = molecular target: T1, human PI3Kalpha p110 catalytic subunit (Rat-1 pBABEpuro Myr-HA-hp110alpha) (Homo sapiens, UniProt P42336); experiment: Cellular assay PI3Kalpha (p-Akt(S473) SureFire, Rat-1_PI3Kalpha cells); type: cell-based; settings: 1 h compound treatment, read-out: Rat1-PI3Ka/ IC50
T1 construct: Myr (myristoylation signal) (N); HA (N); expressed in transfected cells; host or cells: Rat-1
Source text: AlphaScreen (Amplified Luminescent Proximity Homogeneous Assay, ALPHA, Perkin Elmer) is a non-radioactive bead-based proximity assay technology to study biomolecular interactions in a homogenous microtiter plate format. The brand name SureFire denotes AlphaScreen assays that are adapted to quantify the phosphorylation of endogenous cellular proteins in cell lysates, by using matched antibody pairs, which consist of an anti-phospho-kinase and an anti-kinase antibody. The assay allows characterization of kinase signaling in cells as well as measurement of kinase inhibitor effects. The AlphaScreen technology provides several advantages over standard assay techniques such as ELISA, as it avoids time-consuming washing procedures and reduces plate handling. Furthermore, it is miniaturizable at least to a 384-well format and provides sensitivity down to the femtomolar range, dependent on the affinity of the antibodies included in the individual AlphaScreen SureFire assay kit. High sensitivity is reached by an intrinsic amplification mechanism, which involves production of singlet oxygen molecules. SureFire assay kits are commercially available for specific targets and include pairs of validated antibodies (PerkinElmer). This report describes common procedures applied for AlphaScreen SureFire assays and respective semi-automated steps for routine kinase inhibitor profiling in cell-based assays.
The Rat-1 cell lines stably overexpressing activated PI3K class I isoforms Rat-1 pBABEpuro Myr-HA-hp110 delta (Rat-1_PI3Kdelta) and Rat-1 pBABEpuro Myr-HA-hp110alpha (Rat-1_PI3Kalpha) and Rat-1 pBABEpuro Myr-HA-hp110 beta (Rat-1_PI3beta) were prepared as described (Maira S M, Stauffer F, Brueggen J, Furet P, Schnell C, Fritsch C, Brachmann S, Chène P, de Pover A, Schoemaker K, Fabbro D, Gabriel D, Simonen M, Murphy L, Finan P, Sellers W, García-Echeverría C (2008), Mol Cancer Ther. 7:1851-63 and Maira S M, Pecchi S, Brueggen J, Huh K, Schnell C, Fritsch C, Nagel T, Wiesmann M, Brachmann S, Dorsch M, Chène P, Schoemaker K, De Pover A, Menezes D, Fabbro D, Sellers W, García-Echeverría C, Voliva C F (2011), Mol. Cancer Ther., accepted). All cell lines were cultivated in complete growth medium (DMEM high glucose, 10% (v/v) fetal bovine serum, 1% (v/v) MEM NEAA, 10 mM HEPES, 2 mM L-glutamine, puromycin (10 μg/mL for Rat-1_PI3Kdelta and Rat-1_PI3Kalpha, 4 ug/mL for Rat-1_PI3beta), 1% (v/v) Pen/Strep) to 90% confluency at 37° C./5% CO2/90% humidity in a humidified CO2 incubator and were split twice a week.
The following materials were used for p-AKT(S473) detection in Rat-1 cell lysates: Dulbecco's modified Eagle's medium (DMEM) high glucose (Gibco Invitrogen, Basel, Switzerland, Cat. No. 41965), Heat Inactivated Fetal Bovine Serum, Qualified (HI FBS; Gibco Invitrogen, Basel, Switzerland, Lot. No. 16140), MEM non essential amino acids (NEAA; Gibco Invitrogen, Basel, Switzerland, Cat. No. 11140), HEPES (Gibco Invitrogen, Basel, Switzerland, Cat. No. 15630), Penicillin/Streptomycin (Pen/Strep, 100×; Gibco Invitrogen, Basel, Switzerland, Cat. No. 15140-122), L-Glutamine (Gibco Invitrogen, Basel, Switzerland, Cat. No. 25030), Puromycin (Sigma Aldrich, Buchs, Switzerland, Cat. No. P9620), DMSO (MERCK, Dietikon, Switzerland, Cat. No. 8.02912.2500), H2O, MilliQ-H2O unless otherwise stated (MILLIPORE QGARDOOR1, Millipore, Zug, Switzerland), Bovine serum albumine (BSA; Sigma Aldrich, Buchs, Switzerland Cat. No. A8412), SureFire p-Akt 1/2 (Ser473) Assay Kit (PerkinElmer, Schwerzenbach, Switzerland, Cat. No. TGRAS50K).
The p-Akt(S473) SureFire assay measures the phosphorylation of endogenous cellular Akt 1/2 at Ser473 in cell lysates. Using Rat-1 cells stably expressing myr-HA-tagged versions of the human PI3Kdelta, PI3Kalpha, or PI3Kbeta p110 catalytic subunit isoforms, the assay was developed as a two-plate protocol in a 384-well format.

A2058 cells = experiment: Cell cycle G2/M arrest Cytospin assay to detect tubulin binding (off-target); type: cell-based; parameters: key: 0=no condensed DNA observed (indicating no off target activity); 1=(indicating weak off target activity); 2=(indicating medium off target activity); 3=large amount of condensed DNA observed (indicating strong off-target activity); settings: 5 μM test item, 24 hours
Protocol: The off-target effect (evidence of tubulin binding) was measured as follows.
Cell cycle G2/M arrest Cytospin assay to detect tubulin binding (off-target) binding activities of MAPP derivatives: 5×10^5 cells A2058 cells were plated in 6-well cluster, with 2 mL of DMEM (high Glucose containing 1% sodium pyruvate, 1% glutamin and 10% FCS). 18 hours later, the test items were added at a concentration of 5 μM (spiking 1 μL of a 10 mM solution of the test item). 24 hours later, the cells were trypsinized and transferred into a 15 mL conical tube. Cells are then pelleted by centrifugation, and resuspended with PBS/0 (containing 10% FCS). Cells are counted with a CASY counter, and each samples equilibrated to 1×10^6 cells/mL. […] The staining was visually assessed for the presence of condensed DNA and given a score where 0=no condensed DNA observed (indicating no off target activity), 1=(indicating weak off target activity), 2=(indicating medium off target activity), 3=large amount of condensed DNA observed (indicating strong off-target activity).

T1 sequence (P42336 whole entry): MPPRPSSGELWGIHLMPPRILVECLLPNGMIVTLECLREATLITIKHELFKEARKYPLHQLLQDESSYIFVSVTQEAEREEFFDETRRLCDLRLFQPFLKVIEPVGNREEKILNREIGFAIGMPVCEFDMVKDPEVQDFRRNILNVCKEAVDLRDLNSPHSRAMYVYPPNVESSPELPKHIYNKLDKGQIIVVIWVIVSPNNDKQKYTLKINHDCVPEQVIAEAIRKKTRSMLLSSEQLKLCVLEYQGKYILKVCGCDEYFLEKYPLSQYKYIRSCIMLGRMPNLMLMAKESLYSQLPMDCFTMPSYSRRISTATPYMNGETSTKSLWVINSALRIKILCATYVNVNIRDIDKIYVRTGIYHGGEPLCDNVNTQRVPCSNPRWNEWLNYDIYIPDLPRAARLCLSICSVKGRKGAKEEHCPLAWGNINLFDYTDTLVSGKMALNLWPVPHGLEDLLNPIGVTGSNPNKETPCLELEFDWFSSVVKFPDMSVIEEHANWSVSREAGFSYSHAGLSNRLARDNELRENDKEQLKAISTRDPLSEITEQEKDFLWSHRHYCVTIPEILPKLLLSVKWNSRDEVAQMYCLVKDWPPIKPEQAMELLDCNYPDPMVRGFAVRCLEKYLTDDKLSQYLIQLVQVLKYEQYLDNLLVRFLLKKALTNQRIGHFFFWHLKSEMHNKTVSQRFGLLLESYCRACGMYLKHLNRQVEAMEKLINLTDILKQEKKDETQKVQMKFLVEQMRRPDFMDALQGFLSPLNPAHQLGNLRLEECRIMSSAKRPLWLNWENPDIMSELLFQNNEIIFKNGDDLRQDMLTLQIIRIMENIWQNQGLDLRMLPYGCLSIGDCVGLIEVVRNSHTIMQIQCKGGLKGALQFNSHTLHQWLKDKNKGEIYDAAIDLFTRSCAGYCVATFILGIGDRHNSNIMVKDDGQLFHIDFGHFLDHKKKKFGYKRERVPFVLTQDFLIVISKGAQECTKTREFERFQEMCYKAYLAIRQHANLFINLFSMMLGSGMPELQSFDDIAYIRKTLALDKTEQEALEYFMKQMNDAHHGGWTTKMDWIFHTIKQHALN
T1 sequence (Q63787 whole entry partner): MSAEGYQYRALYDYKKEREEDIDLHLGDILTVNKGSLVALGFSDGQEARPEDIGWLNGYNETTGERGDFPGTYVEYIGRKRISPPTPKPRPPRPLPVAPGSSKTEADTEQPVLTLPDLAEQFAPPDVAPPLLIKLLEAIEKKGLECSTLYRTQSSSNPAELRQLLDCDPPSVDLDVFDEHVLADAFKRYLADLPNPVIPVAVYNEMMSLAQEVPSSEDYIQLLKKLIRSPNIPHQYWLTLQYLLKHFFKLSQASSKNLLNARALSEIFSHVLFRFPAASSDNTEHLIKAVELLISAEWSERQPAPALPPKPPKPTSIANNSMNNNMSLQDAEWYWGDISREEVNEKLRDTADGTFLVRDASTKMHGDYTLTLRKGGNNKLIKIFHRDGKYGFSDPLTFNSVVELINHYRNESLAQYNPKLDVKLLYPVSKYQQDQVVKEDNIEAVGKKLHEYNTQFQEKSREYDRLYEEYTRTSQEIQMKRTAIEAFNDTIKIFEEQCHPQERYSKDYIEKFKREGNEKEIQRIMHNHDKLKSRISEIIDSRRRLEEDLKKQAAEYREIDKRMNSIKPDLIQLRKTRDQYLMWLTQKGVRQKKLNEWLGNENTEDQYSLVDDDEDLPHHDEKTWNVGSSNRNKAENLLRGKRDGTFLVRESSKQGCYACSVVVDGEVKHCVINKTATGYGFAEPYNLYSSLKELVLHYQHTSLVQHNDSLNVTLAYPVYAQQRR

| Structure (SMILES) | IC50 [1] [µM] | Score (condensed DNA, G2/M arrest; off-target tubulin binding) (A2058 cells) |
| --- | --- | --- |
| C[C@H]1C(CC(C)(C)O)OC(=O)N1c1cc(-c2cnc(N)nc2C(F)(F)F)nc(N2CCOCC2)n1 (mixture of isomers) [Example 26, (4S,5R)- and (4S,5S)-3-(2′-amino-2-morpholino-4′-(trifluoromethyl)-[4,5′-bipyrimidin]-6-yl)-5-(2-hydroxy-2-methylpropyl)-4-methyloxazolidin-2-one] | 0.058 | 0 |
| CC1(CO)COC(=O)N1c1cc(-c2cnc(N)nc2C(F)(F)F)nc(N2CCOCC2)n1 (racemic) [Example 3, 3-(2′-amino-2-morpholino-4′-(trifluoromethyl)-4,5′-bipyrimidin-6-yl)-4-(hydroxymethyl)-4-methyloxazolidin-2-one] | 0.147 | 0 |
| Nc1ncc(-c2cc(N3C(=O)O[C@@H]4[C@@H](O)CC[C@@H]43)nc(N3CCOCC3)n2)c(C(F)(F)F)n1 (racemic) [Example 22, (3aR*,6R*,6aR*)-3-(2′-Amino-2-morpholino-4′-(trifluoromethyl)-[4,5′-bipyrimidin]-6-yl)-6-hydroxyhexahydro-2H-cyclopenta[d]oxazol-2-one] | 0.095 | 0 |
| Nc1ncc(-c2cc(N3C(=O)OC4C(O)CCC43)nc(N3CCOCC3)n2)c(C(F)(F)F)n1 (single isomer, unassigned) [Example 22A] | 0.086 | – |
| Nc1ncc(-c2cc(N3C(=O)OC4C(O)CCC43)nc(N3CCOCC3)n2)c(C(F)(F)F)n1 (single isomer, unassigned) [Example 22B] | 0.148 | – |
| C[C@@H](O)C[C@H]1OC(=O)N(c2cc(-c3cnc(N)nc3C(F)(F)F)nc(N3CCOCC3)n2)[C@H]1C (single isomer, unassigned) [Example 24] | 0.045 | 0 |
| C[C@H](O)CC1OC(=O)N(c2cc(-c3cnc(N)nc3C(F)(F)F)nc(N3CCOCC3)n2)[C@H]1C (single isomer, unassigned) [Example 25] | 0.045 | 0 |
| C[C@H]1COC(=O)N1c1cc(-c2cnc(N)nc2C(F)(F)F)nc(N2CCOCC2)n1 [Example 1, (S)-3-(2′-Amino-2-morpholin-4-yl-4′-trifluoromethyl-[4,5′]bipyrimidinyl-6-yl)-4-methyl-oxazolidin-2-one] | 0.048 | 0 |
| CC1(C)OC(=O)N(c2cc(-c3cnc(N)nc3C(F)(F)F)nc(N3CCOCC3)n2)[C@H]1CO [Example 2, (S)-3-(2′-Amino-2-morpholin-4-yl-4′-trifluoromethyl-[4,5′]bipyrimidinyl-6-yl)-4-hydroxymethyl-5,5-dimethyl-oxazolidin-2-one] | 0.134 | – |
| Nc1ncc(-c2cc(N3C(=O)O[C@H]4CCCC[C@@H]43)nc(N3CCOCC3)n2)c(C(F)(F)F)n1 [Example 4, (3aS,7aS)-3-(2′-Amino-2-morpholin-4-yl-4′-trifluoromethyl-[4,5′]bipyrimidinyl-6-yl)-hexahydro-benzooxazol-2-one] | 0.031 | 0 |
| COC[C@H]1COC(=O)N1c1cc(-c2cnc(N)nc2C(F)(F)F)nc(N2CCOCC2)n1 [Example 5, (S)-3-(2′-Amino-2-morpholin-4-yl-4′-trifluoromethyl-[4,5′]bipyrimidinyl-6-yl)-4-methoxymethyl-oxazolidin-2-one] | 0.093 | 0 |
| C[C@@H]1OC(=O)N(c2cc(-c3cnc(N)nc3C(F)(F)F)nc(N3CCOCC3)n2)[C@H]1CO [Example 6] | 0.094 | 0 |
| [2H]C1([2H])OC([2H])([2H])C([2H])([2H])N(c2nc(-c3cnc(N)nc3C(F)(F)F)cc(N3C(=O)O[C@H](C)[C@@H]3CO)n2)C1([2H])[2H] [Example 8] | 0.081 | 0 |
| Nc1ncc(-c2cc(N3C(=O)OC[C@@H]3CCO)nc(N3CCOCC3)n2)c(C(F)(F)F)n1 [Example 9, (S)-3-(2′-Amino-2-morpholin-4-yl-4′-trifluoromethyl-[4,5′]bipyrimidinyl-6-yl)-4-(2-hydroxy-ethyl)-oxazolidin-2-one] | 0.147 | – |
| Nc1ncc(-c2cc(N3CCOC3=O)nc(N3CCOCC3)n2)c(C(F)(F)F)n1 [Example 11, 3-(2′-Amino-2-morpholin-4-yl-4′-trifluoromethyl-[4,5′]bipyrimidinyl-6-yl)-oxazolidin-2-one, reference compound] | 0.256 | 3 |
| C[C@H]1OC(=O)N(c2cc(-c3cnc(N)nc3C(F)(F)F)nc(N3CCOCC3)n2)[C@H]1COC=O [Example 12, Formic acid (4S,5R)-3-(2′-amino-2-morpholin-4-yl-4′-trifluoromethyl-[4,5′]bipyrimidinyl-6-yl)-5-methyl-2-oxo-oxazolidin-4-ylmethyl ester] | 0.113 | 0 |
| C[C@H]1COCCN1c1nc(-c2cnc(N)nc2C(F)(F)F)cc(N2C(=O)OC[C@@H]2C)n1 [Example 13, (S)-3-[2′-Amino-2-((S)-3-methyl-morpholin-4-yl)-4′-trifluoromethyl-[4,5′]bipyrimidinyl-6-yl]-4-methyl-oxazolidin-2-one] | 0.058 | 0 |
| Nc1ncc(-c2cc(N3C[C@@H](CO)OC3=O)nc(N3CCOCC3)n2)c(C(F)(F)F)n1 [Example 14, (S)-3-(2′-Amino-2-morpholin-4-yl-4′-trifluoromethyl-[4,5′]bipyrimidinyl-6-yl)-5-hydroxymethyl-oxazolidin-2-one] | 0.277 | 0 |
| C[C@H]1[C@H](CO)OC(=O)N1c1cc(-c2cnc(N)nc2C(F)(F)F)nc(N2CCOCC2)n1 [Example 15, (4S,5R)-3-(2′-Amino-2-morpholin-4-yl-4′-trifluoromethyl-[4,5′]bipyrimidinyl-6-yl)-5-hydroxymethyl-4-methyl-oxazolidin-2-one] | 0.079 | 0 |
